Measurements reported in patent US20200017495A1, “NOVEL HETEROCYCLIC COMPOUNDS AND THEIR USE IN PREVENTING OR TREATING BACTERIAL INFECTIONS” (priority 2017, published 2020).
Several values for one entry are separate records, joined by “and”; a condition that tells them apart may be missing. Equal values may be shown once. Read-outs that look alike come from different tables or passages of the source.

Tests used:
Type in all cases: cell-based
[1] = tested on: Citrobacter murliniae (CMU) isolates; assay: MIC of compounds alone and combined with antibacterials, broth microdilution (CLSI)
Method: (§1) Method 2: MIC of Compounds Alone and Combined with Antibacterials Against Bacterial Isolates
(§2) Compounds of the present invention were assessed against genotyped bacterial strains (Table 3, 4) alone or in combination with an antibacterial (Table 2). […]. Briefly, compounds alone according to the invention were prepared in DMSO and spotted (2 μL each) on sterile polystyrene plates (Corning, 3788). Combinations of compounds and antibiotics dilutions were prepared in DMSO and spotted (1 μL each) on sterile polystyrene plates (Corning, 3788). Log phase bacterial suspensions were adjusted to a final density of 5.10^5 CFU/mL in cation-adjusted Mueller-Hinton broth (ca-MHB; Becton-Dickinson and Company) and added to each well (98 μL). Microplates were incubated for 16-20 h at 35° C. in ambient air. The MIC of the compounds was defined as the lowest concentration of said compounds that prevented bacterial growth as read by visual inspection. The MIC of ATB at each compound concentration was defined as the lowest concentration of ATB that prevented bacterial growth as read by visual inspection.

[2] = tested on: Providencia stuartii (PST) isolates; assay: as above
Method: as §1, §2

[3] = tested on: Salmonella typhimurium (STY) isolates; assay: as above; settings: STY S3371; AF2 @ 8 μg/mL
Method: as §1, §2

[4] = tested on: Proteus mirabilis (PMI) isolates; assay: microbe, parasite or virus in culture
Method: as §1
Compounds of the present invention were assessed against genotyped bacterial strains (Table 3, 4) alone or in combination with an antibacterial (Table 2). […] Log phase bacterial suspensions were adjusted to a final density of 5.10^5 CFU/mL in cation-adjusted Mueller-Hinton broth (ca-MHB; Becton-Dickinson and Company) and added to each well (98 μL). Microplates were incubated for 16-20 h at 35° C. in ambient air. The MIC of the compounds was defined as the lowest concentration of said compounds that prevented bacterial growth as read by visual inspection. The MIC of ATB at each compound concentration was defined as the lowest concentration of ATB that prevented bacterial growth as read by visual inspection.

**Q.** Which “MIC ATB in combination” value [1] does the source give for CC1(C)S[C@@H]2[C@H](NC(=O)[C@H](N)c3ccc(O)cc3)C(=O)N2[C@H]1C(=O)O [AMX, Amoxicillin] here?
**A.** >128 µg/mL

**Q.** And the MIC ([1]; strain CMU 210102, genotype VIM-4)?
**A.** >256 µg/mL

**Q.** What about the “MIC ATB in combination” value [2] of the same compound?
**A.** 128 µg/mL and >128 µg/mL

**Q.** What about the “MIC ATB in combination” value ([2]; PST UFR120, CLA @ 4 μg/mL) of the same compound?
**A.** 8 µg/mL

**Q.** What about the “MIC ATB in combination” value ([2]; PST UFR121, CLA @ 4 μg/mL) of the same compound?
**A.** 4 µg/mL

**Q.** What about the “MIC ATB in combination” value ([2]; PST UFR122, CLA @ 4 μg/mL) of the same compound?
**A.** 8 µg/mL

**Q.** And the “MIC ATB in combination” value ([2]; PST UFR123, CLA @ 4 μg/mL)?
**A.** 16 µg/mL

**Q.** And the “MIC ATB in combination” value ([2]; PST UFR125, CLA @ 4 μg/mL)?
**A.** 4 µg/mL

**Q.** What about the MIC ([2]; strain PST UFR94, genotype CTX-M-14) of the same compound?
**A.** >128 µg/mL

**Q.** What about the MIC ([2]; strain PST UFR95, genotype TEM-24) of the same compound?
**A.** >128 µg/mL

**Q.** And the MIC ([2]; strain PST UFR98, genotype TEM-1, CMY-6, OXA-1, NDM-1, RmtC)?
**A.** >128 µg/mL

**Q.** What about the MIC ([2]; strain PST UFR235, genotype VEB-1) of the same compound?
**A.** >128 µg/mL

**Q.** And the “MIC ATB in combination” value [3]?
**A.** <0.25 µg/mL

**Q.** What about the “MIC ATB in combination” value ([4]; PMI UFR82, AF2 @ 8 μg/mL) of the same compound?
**A.** <0.25 µg/mL

**Q.** What about the “MIC ATB in combination” value ([4]; PMI UFR126, CLA @ 4 μg/mL) of the same compound?
**A.** 16 µg/mL

**Q.** And the “MIC ATB in combination” value ([4]; PMI UFR127, CLA @ 4 μg/mL)?
**A.** 32 µg/mL

**Q.** And the “MIC ATB in combination” value ([4]; PMI UFR129, CLA @ 4 μg/mL)?
**A.** 2 µg/mL

**Q.** What about the “MIC ATB in combination” value ([4]; PMI UFR237, CLA @ 4 μg/mL) of the same compound?
**A.** 4 µg/mL

**Q.** What about the MIC ([4]; strain PMI UFR82, genotype CMY-2) of the same compound?
**A.** 256 µg/mL

**Q.** What about the MIC ([4]; strain PMI UFR120, genotype TEM-1, SHV-11, CTX-M-14) of the same compound?
**A.** >128 µg/mL

**Q.** And the MIC ([4]; strain PMI UFR121, genotype TEM-1, TEM-52)?
**A.** >128 µg/mL

**Q.** What about the MIC ([4]; strain PMI UFR122, genotype TEM-1, CTX-M-15) of the same compound?
**A.** >128 µg/mL

**Q.** What about the MIC ([4]; strain PMI UFR123, genotype CTX-M-1) of the same compound?
**A.** >128 µg/mL

**Q.** And the MIC ([4]; strain PMI UFR124, genotype CTX-M-2)?
**A.** >128 µg/mL

**Q.** What about the MIC ([4]; strain PMI UFR125, genotype CTX-M-71) of the same compound?
**A.** >128 µg/mL

**Q.** What about the MIC ([4]; strain PMI UFR126, genotype TEM-2, PER-1) of the same compound?
**A.** >128 µg/mL

**Q.** And the MIC ([4]; strain PMI UFR127, genotype VEB-1)?
**A.** >128 µg/mL

**Q.** What about the MIC ([4]; strain PMI UFR128, genotype VEB-1, OXA-10) of the same compound?
**A.** >128 µg/mL

**Q.** And the MIC ([4]; strain PMI UFR129, genotype TEM-1, VEB-6)?
**A.** >128 µg/mL

**Q.** What about the MIC ([4]; strain PMI UFR130, genotype CMY-2) of the same compound?
**A.** >128 µg/mL

**Q.** And the MIC ([4]; strain PMI UFR131, genotype CMY-16, OXA-1, OXA-10, NDM-1, ArmA)?
**A.** >128 µg/mL

**Q.** What about the MIC ([4]; strain PMI UFR132, genotype VEB-6, DHA-1, NDM-1, AphA6, AacA4) of the same compound?
**A.** >128 µg/mL

**Q.** What about the MIC ([4]; strain PMI UFR133, genotype OXA-23) of the same compound?
**A.** >128 µg/mL

**Q.** And the MIC ([4]; strain PMI UFR237, genotype VEB-6)?
**A.** >128 µg/mL
